In patent US3983105A, “Penicillins” (Bayer Aktiengesellschaft, priority 1971, dated 1976) one finds MIC data, which are given here for twelve compounds.

SMILES strings stand for the structures. A value given as a limit tells only on which side of the number the result lay.

Common to all, as to assay type: cell-based
One test deals with Streptococcus faecalis. Put plainly: MIC, test tube serial dilution, Streptococcus faecalis.
The test system of the next test is Klebsiella-Aerobacter. Put plainly: MIC, test tube serial dilution, Klebsiella-Aerobacter.
A further test deals with Escherichia coli. Briefly: MIC, test tube serial dilution, Escherichia coli.
Another test relates to Proteus vulgaris. Briefly: MIC, test tube serial dilution, Proteus vulgaris.
Another test relates to Pseudomonas aeruginosa. Put plainly: MIC, test tube serial dilution, Pseudomonas aeruginosa.
The test system of the next test is Staphylococcus aureus. Briefly: MIC, test tube serial dilution, Staphylococcus aureus.
A further test has as its system Proteus morganii. Briefly: MIC, test tube serial dilution, Proteus morganii. The conditions noted are these: unit assumed.
Where [1] appears, read: strain 1756 (BRL 1 756), 24 hours, 37°C.

For the compound `Cc1ccc(S(=O)(=O)NC2=NCCN2C(=O)N[C@@H](C(=O)N[C@@H]2C(=O)N3[C@@H]2SC(C)(C)[C@@H]3C(=O)O)c2ccccc2)cc1` [Example 25, Sodium D(-)-α-[(2-tosylamino-imidazolin(2)-1-yl)-carbonylamino]-benzylpenicillin], the MIC is given as 16 U/ml in the test on Streptococcus faecalis (ATCC 9790, 24 hours, 37°C); 64 U/ml in the test with Klebsiella-Aerobacter (strain 63, 24 hours, 37°C); 64 U/ml with Klebsiella-Aerobacter (strain K 10, 24 hours, 37°C); 32 U/ml against Escherichia coli (strain 183/58, 24 hours, 37°C); more than 256 U/ml in the test on Escherichia coli (strain A 261, 24 hours, 37°C); 16 U/ml in the test on Escherichia coli (strain C 165, 24 hours, 37°C). Moreover, the MIC against Proteus vulgaris (strain 1017, 24 hours, 37°C) was found to be 16 U/ml; with Pseudomonas aeruginosa (in µg/mL (unit assumed)), 32; with Pseudomonas aeruginosa (strain Bonn, 24 hours, 37°C), 64 U/ml; in the test with Staphylococcus aureus (setting [1]), 64 U/ml.
As to `CC1(C)S[C@@H]2[C@H](NC(=O)[C@H](NC(=O)N3CCN(C(=O)NS(C)(=O)=O)C3=O)c3ccccc3)C(=O)N2[C@H]1C(=O)O` [Example 30, Sodium D(-)-α-[3-(methylsulphonyl-amino-carbonyl)-imidazolidinon-2-yl-1]-carbonylamino-benzylpenicillin], the MIC was 128 µg/mL in the test on Streptococcus faecalis (unit assumed); 8 µg/mL in the test with Proteus morganii; 128 against Klebsiella-Aerobacter (in µg/mL (unit assumed)); 64 U/ml against Klebsiella-Aerobacter (strain 63, 24 hours, 37°C); 64 U/ml in the test with Escherichia coli (strain 183/58, 24 hours, 37°C); more than 256 U/ml with Escherichia coli (strain A 261, 24 hours, 37°C). Besides, the MIC against Pseudomonas aeruginosa (in µg/mL (unit assumed)) is given as 32; in the test with Staphylococcus aureus (setting [1]) it was 256 U/ml.
Take `CCCC(=O)N1CCN(C(=O)N[C@@H](C(=O)N[C@@H]2C(=O)N3[C@@H]2SC(C)(C)[C@@H]3C(=O)O)c2ccccc2)C1=O` [Example 14, Sodium D(-)-α-[(3-n-butyryl-imidazolidin-2-on-1-yl)-carbonylamino]-benzylpenicillin]: the MIC in the test on Streptococcus faecalis (unit assumed) was 32 µg/mL; in the test on Escherichia coli (strain 183/58, 24 hours, 37°C) it was less than 1 U/ml; with Pseudomonas aeruginosa (in µg/mL (unit assumed)), 32; against Staphylococcus aureus (setting [1]), 128 U/ml.
With `CC1(C)S[C@@H]2[C@H](NC(=O)[C@H](NC(=O)N3CCN(C(N)=O)C3=O)c3ccccc3)C(=O)N2[C@H]1C(=O)O` [Example 5, Sodium D(-)-α-[(3-aminocarbonyl-imidazolidin-2-on-1-yl)-carbonylamino]-benzylpenicillin], the MIC against Streptococcus faecalis (unit assumed) was found to be 32 µg/mL; against Proteus morganii, 32 µg/mL; against Klebsiella-Aerobacter (in µg/mL (unit assumed)), 32; against Klebsiella-Aerobacter (strain 63, 24 hours, 37°C), 16 U/ml; against Escherichia coli (strain 183/58, 24 hours, 37°C) it was 4 U/ml; against Escherichia coli (strain A 261, 24 hours, 37°C), 256 U/ml. In addition, the MIC in the test on Pseudomonas aeruginosa (in µg/mL (unit assumed)) is reported as 32; against Staphylococcus aureus (setting [1]) it was more than 256 U/ml.
With `CC1(C)S[C@@H]2[C@H](NC(=O)[C@H](NC(=O)N3CCN(S(C)(=O)=O)C3=O)c3ccccc3)C(=O)N2[C@H]1C(=O)O` [Penicillin No. 1 (Table 3), Sodium D(-)-α-[(3-methylsulphonyl-imidazolidin-2-on-1-yl)-carbonylamino]-benzylpenicillin], the MIC is reported as 25 U/ml against Streptococcus faecalis (Table 3, ATCC 9790); 12.5 U/ml against Klebsiella-Aerobacter (Table 3, strain 63); 6.2 U/ml in the test with Klebsiella-Aerobacter (Table 3, strain K 10); less than 0.8 U/ml against Escherichia coli (Table 3, strain 14); 1.6 U/ml with Escherichia coli (Table 3, strain 183/58); 200 U/ml in the test with Escherichia coli (Table 3, strain A 261). Besides, the MIC against Proteus vulgaris (Table 3, strain 1017) is recorded as 3.1 U/ml; in the test with Pseudomonas aeruginosa (Table 3, strain F 41) it was 50 U/ml; against Pseudomonas aeruginosa (Table 3, strain Walter), 50 U/ml; in the test with Staphylococcus aureus (Table 3, strain 133) it was less than 0.8 U/ml; with Staphylococcus aureus (Table 3, strain 1756E), 400 U/ml.
On to `CC1(C)S[C@@H]2[C@H](NC(=O)[C@H](NC(=O)N3CCN(C(=O)c4ccco4)C3=O)c3ccccc3)C(=O)N2[C@H]1C(=O)O` [Example 13, Sodium D(-)-α-[(3-furoyl(2)-imidazolidin-2-on-1-yl)-carbonylamino]-benzylpenicillin], for which the MIC in the test on Streptococcus faecalis (ATCC 9790, 24 hours, 37°C) was 16 U/ml; with Klebsiella-Aerobacter (in µg/mL (unit assumed)), 8; against Escherichia coli (strain 183/58, 24 hours, 37°C) it was less than 1 U/ml; against Pseudomonas aeruginosa (strain F 41, 24 hours, 37°C), 16 U/ml; in the test on Pseudomonas aeruginosa (strain Walter, 24 hours, 37°C), 16 U/ml; with Staphylococcus aureus (setting [1]), 128 U/ml.
With `CC1(C)S[C@@H]2[C@H](NC(=O)[C@H](NC(=O)N3CCN(C(=O)Nc4ccccc4)C3=O)c3ccccc3)C(=O)N2[C@H]1C(=O)O` [Example 10, Sodium D(-)-α-[(3-phenylaminocarbonyl-imidazolidin-2-on-1-yl)-carbonylamino]-benzylpenicillin], the MIC in the test on Streptococcus faecalis (unit assumed) is 128 µg/mL; in the test on Klebsiella-Aerobacter (in µg/mL (unit assumed)), 8; against Escherichia coli (strain 183/58, 24 hours, 37°C), 4 U/ml; with Escherichia coli (strain A 261, 24 hours, 37°C), more than 256 U/ml; against Proteus vulgaris (unit assumed), 8 µg/mL; in the test with Pseudomonas aeruginosa (strain Bonn, 24 hours, 37°C), 64 U/ml. Besides, the MIC against Pseudomonas aeruginosa (strain Walter, 24 hours, 37°C) was 256 U/ml; against Staphylococcus aureus (setting [1]) it was more than 256 U/ml.
With `CC1(C)S[C@@H]2[C@H](NC(=O)[C@H](NC(=O)N3CCN(C(=O)OC4CCCCC4)C3=O)c3ccccc3)C(=O)N2[C@H]1C(=O)O` [Example 23, Sodium D(-)-α-[(3-cyclohexyloxycarbonyl-imidazolidin-2-on-1-yl)-carbonylamino]-benzylpenicillin], the MIC is 32 µg/mL with Streptococcus faecalis (unit assumed); 8 in the test on Klebsiella-Aerobacter (in µg/mL (unit assumed)); less than 1 U/ml in the test with Escherichia coli (strain 183/58, 24 hours, 37°C); 32 against Pseudomonas aeruginosa (in µg/mL (unit assumed)); 16 U/ml in the test with Pseudomonas aeruginosa (strain Bonn, 24 hours, 37°C); 64 U/ml against Staphylococcus aureus (setting [1]).
In the case of `CC(C)OC(=O)N1CCN(C(=O)N[C@@H](C(=O)N[C@@H]2C(=O)N3[C@@H]2SC(C)(C)[C@@H]3C(=O)O)c2ccccc2)C1=O` [Example 7, Sodium D(-)-α-[(3-i-propyloxycarbonyl-imidazolidin-2-on-1-yl)-carbonylamino]-benzylpenicillin], the MIC is given as 16 U/ml in the test with Streptococcus faecalis (ATCC 9790, 24 hours, 37°C); less than 1 U/ml in the test with Escherichia coli (strain 183/58, 24 hours, 37°C); more than 256 U/ml against Escherichia coli (strain A 261, 24 hours, 37°C); 16 U/ml in the test on Proteus vulgaris (strain 1017, 24 hours, 37°C); 8 in the test on Pseudomonas aeruginosa (in µg/mL (unit assumed)); 16 U/ml against Pseudomonas aeruginosa (strain Bonn, 24 hours, 37°C). This compound also registered an MIC in the test on Staphylococcus aureus (setting [1]) of 128 U/ml.
In the case of `CCC(=O)N1CCN(C(=O)N[C@@H](C(=O)N[C@@H]2C(=O)N3[C@@H]2SC(C)(C)[C@@H]3C(=O)O)c2ccccc2)C1=O` [Example 26, Sodium D(- )-α-[(2-oxo-3-propionyl-1-imidazolidinyl)-carbonylamino]-benzylpenicillin], the MIC against Streptococcus faecalis (unit assumed) was 8 µg/mL; against Klebsiella-Aerobacter (in µg/mL (unit assumed)), 32; in the test on Klebsiella-Aerobacter (strain 63, 24 hours, 37°C), 16 U/ml; against Escherichia coli (strain 183/58, 24 hours, 37°C), 4 U/ml; against Escherichia coli (strain A 261, 24 hours, 37°C), more than 256 U/ml; in the test with Pseudomonas aeruginosa (in µg/mL (unit assumed)) it was 32. For the same compound, the MIC is 64 U/ml with Pseudomonas aeruginosa (strain Walter, 24 hours, 37°C) and 64 U/ml against Staphylococcus aureus (setting [1]).
On to `CC(C)(C)C(=O)N1CCN(C(=O)N[C@@H](C(=O)N[C@@H]2C(=O)N3[C@@H]2SC(C)(C)[C@@H]3C(=O)O)c2ccccc2)C1=O` [Example 21, Sodium D(-)-α-[(3-pivaloyl-imidazolidin-2-on-1-yl)-carbonylamino]-benzylpenicillin], for which the MIC was 64 U/ml in the test with Streptococcus faecalis (ATCC 9790, 24 hours, 37°C); 8 in the test on Klebsiella-Aerobacter (in µg/mL (unit assumed)); less than 1 U/ml against Escherichia coli (strain 183/58, 24 hours, 37°C); 256 U/ml in the test on Escherichia coli (strain A 261, 24 hours, 37°C); 32 in the test with Pseudomonas aeruginosa (in µg/mL (unit assumed)); 256 U/ml in the test with Staphylococcus aureus (setting [1]).
In the case of `CC1(C)S[C@@H]2[C@H](NC(=O)[C@H](NC(=O)N3CCN(S(=O)(=O)c4ccccc4)C3=O)c3ccccc3)C(=O)N2[C@H]1C(=O)O` [Example 27, Sodium D(-)-α-[(2-oxo-3-benzenesulphonyl-1-imidazolidinyl)-carbonylamino]-benzylpenicillin], the MIC against Escherichia coli (strain 183/58, 24 hours, 37°C) is on record as 0.5 U/ml; against Escherichia coli (strain A 261, 24 hours, 37°C) it was more than 256 U/ml; against Pseudomonas aeruginosa (in µg/mL (unit assumed)) it was 32; in the test on Staphylococcus aureus (setting [1]), 64 U/ml.
